What was measured:
Zika virus = assay: EC50 is reported via analysis of immunofluorescence staining. The assay has been performed by Icahn School of Medicine at Mount Sinai.; assay type: functional, organism-based, Chlorocebus sabaeus, VeroE6/TMPRSS2; conditions: for EC90: P-gp concentration 2 uM, P-gp inhibitor Elacidar
dengue virus type 2 = assay: Functional immunofluorescence assay to measure dose dependent changes in antiviral-drug inhibitory efficacy against Dengue virus type 2 Thailand/16681/84 in Vero E6/TMPRSS2 cells (cotreated with P-gp inhibitor, Elacridar). Cells are treated with antiviral candidates that are serially diluted, following infection, cells are fixed. EC50 is reported via analysis of immunofluorescence staining. The assay has been performed by Icahn School of Medicine at Mount Sinai.; assay type: organism-based, Chlorocebus sabaeus, VeroE6/TMPRSS2

Structure (SMILES): c1ccc(-c2csc(C3CCN(Cc4c[nH]c5ccccc45)CC3)n2)cc1
- EC90 (Zika virus; Baseline response 0 %, Hill slope -0.213, Maximum measured 87.861 %, Maximum response 100 %, Minimum measured 39.067 %, R squared 0.218): > 1.85 µM
- EC50 (Zika virus; Zika virus, VeroE6/TMPRSS2): 0.919 µM
- EC90 (Zika virus; Zika virus, VeroE6/TMPRSS2, Baseline response 0 %, Hill slope -0.414, Maximum measured 90.11 %, Maximum response 100 %, Minimum measured 29.783 %, R squared 0.361): > 3.33 µM
- EC50 (Zika virus; veroe6/tmprss2): 1.09 µM
- EC50 (dengue virus type 2; Dengue virus, VeroE6/TMPRSS2): > 3.33 µM
- EC90 (dengue virus type 2; Dengue virus, VeroE6/TMPRSS2, Maximum measured 77.936 %, Minimum measured 57.835 %, P-gp concentration 2 uM, P-gp inhibitor Elacidar): > 3.33 µM
- EC90 (dengue virus type 2; Dengue virus, VeroE6/TMPRSS2, Baseline response 0 %, Hill slope -0.326, Maximum measured 104.724 %, Maximum response 100 %, Minimum measured 54.484 %, P-gp concentration 2 uM, R squared 0.233, P-gp inhibitor Elacidar): > 1.85 µM
- EC50 (dengue virus type 2; veroe6/tmprss2): > 1.85 µM

Structure (SMILES): N#C[C@H](Nc1cccc(-c2nn[nH]n2)c1)c1cc(Cl)cc(NC(=O)OCc2ccccc2)c1
- EC50 (Zika virus; Zika virus, VeroE6/TMPRSS2): > 50 µM
- EC90 (Zika virus; Zika virus, VeroE6/TMPRSS2, Maximum measured 138.49 %, Minimum measured 54.48 %): > 50 µM
- EC50 (dengue virus type 2; Dengue virus, VeroE6/TMPRSS2): > 50 µM
- EC90 (dengue virus type 2; Dengue virus, VeroE6/TMPRSS2, Baseline response 0 %, Hill slope -0.37, Maximum measured 135.235 %, Maximum response 100 %, Minimum measured 60.402 %, P-gp concentration 2 uM, R squared 0.119, P-gp inhibitor Elacidar): > 50 µM

Structure (SMILES): CCOC(=O)Nc1cc(Cl)cc(C(=O)Nc2cccc(CN)c2)c1
- EC50 (Zika virus; Zika virus, VeroE6/TMPRSS2): > 50 µM
- EC90 (Zika virus; Zika virus, VeroE6/TMPRSS2, Maximum measured 144.074 %, Minimum measured 100.96 %): > 50 µM
- EC50 (dengue virus type 2; Dengue virus, VeroE6/TMPRSS2): > 16.7 µM
- EC90 (dengue virus type 2; Dengue virus, VeroE6/TMPRSS2, Maximum measured 179.291 %, Minimum measured 97.679 %, P-gp concentration 2 uM, P-gp inhibitor Elacidar): > 16.7 µM

Structure (SMILES): CCCC(=O)Nc1cc(Cl)cc(C(=O)Nc2cccc(CN)c2)c1
- EC50 (Zika virus; Zika virus, VeroE6/TMPRSS2): > 16.7 µM
- EC90 (Zika virus; Zika virus, VeroE6/TMPRSS2, Baseline response 0 %, Hill slope -0.382, Maximum measured 108.39 %, Maximum response 100 %, Minimum measured 82.052 %, R squared 0.052): > 16.7 µM
- EC50 (dengue virus type 2; Dengue virus, VeroE6/TMPRSS2): > 50 µM
- EC90 (dengue virus type 2; Dengue virus, VeroE6/TMPRSS2, Maximum measured 163.615 %, Minimum measured 116.069 %, P-gp concentration 2 uM, P-gp inhibitor Elacidar): > 50 µM

Structure (SMILES): Cc1ccc2cc(Cl)cc(C(=O)Nc3ccc4c(c3)CNC4)c2n1
- EC50 (Zika virus; Zika virus, VeroE6/TMPRSS2): > 16.7 µM
- EC90 (Zika virus; Zika virus, VeroE6/TMPRSS2, Maximum measured 117.23 %, Minimum measured 34.966 %): > 16.7 µM
- EC50 (dengue virus type 2; Dengue virus, VeroE6/TMPRSS2): > 5.56 µM
- EC90 (dengue virus type 2; Dengue virus, VeroE6/TMPRSS2, Maximum measured 235.971 %, Minimum measured 154.17 %, P-gp concentration 2 uM, P-gp inhibitor Elacidar): > 5.56 µM

Structure (SMILES): O=C(Nc1cc(Cl)cc(C(=O)Nc2cc(-c3nnn[nH]3)ccc2F)c1)OCc1ccccc1
- EC50 (Zika virus; Zika virus, VeroE6/TMPRSS2): > 16.7 µM
- EC90 (Zika virus; Zika virus, VeroE6/TMPRSS2, Maximum measured 136.099 %, Minimum measured 71.047 %): > 16.7 µM
- EC50 (dengue virus type 2; Dengue virus, VeroE6/TMPRSS2): > 50 µM
- EC90 (dengue virus type 2; Dengue virus, VeroE6/TMPRSS2, Baseline response 0 %, Hill slope -0.699, Maximum measured 181.18 %, Maximum response 100 %, Minimum measured 75.606 %, P-gp concentration 2 uM, R squared 0.051, P-gp inhibitor Elacidar): > 50 µM

Structure (SMILES): C=CC[C@H](Nc1cc(Cl)cc(NC(=O)OCc2ccccc2)c1)c1cccc(-c2nn[nH]n2)c1
- EC50 (Zika virus; Zika virus, VeroE6/TMPRSS2): 14.2 µM
- EC90 (Zika virus; Zika virus, VeroE6/TMPRSS2, Baseline response 0 %, Hill slope -24.201, Maximum measured 231.442 %, Maximum response 100 %, Minimum measured 2.044 %, R squared 0.135): 15.6 µM
- EC50 (dengue virus type 2; Dengue virus, VeroE6/TMPRSS2): 0.449 µM
- EC90 (dengue virus type 2; Dengue virus, VeroE6/TMPRSS2): 4.92 µM

Structure (SMILES): O=C(O)CCc1ccc(NC(=O)c2cc(Cl)cc(NC(=O)OCc3ccccc3)c2)cc1
- EC50 (Zika virus; Zika virus, VeroE6/TMPRSS2): > 50 µM
- EC90 (Zika virus; Zika virus, VeroE6/TMPRSS2, Maximum measured 138.099 %, Minimum measured 61.86 %): > 50 µM
- EC50 (dengue virus type 2; Dengue virus, VeroE6/TMPRSS2): 23.4 µM
- EC90 (dengue virus type 2; Dengue virus, VeroE6/TMPRSS2): 44.4 µM

Structure (SMILES): O=S(=O)(Nc1cccc(-c2nnn[nH]2)c1)c1cc(Cl)cc(-c2ccccc2)c1
- EC50 (Zika virus; Zika virus, VeroE6/TMPRSS2): > 50 µM
- EC90 (Zika virus; Zika virus, VeroE6/TMPRSS2, Maximum measured 155.311 %, Minimum measured 93.761 %): > 50 µM
- EC50 (dengue virus type 2; Dengue virus, VeroE6/TMPRSS2): 0.611 µM
- EC90 (dengue virus type 2; Dengue virus, VeroE6/TMPRSS2, Baseline response 0 %, Hill slope -0.304, Maximum measured 103.918 %, Maximum response 100 %, Minimum measured 7.141 %, P-gp concentration 2 uM, R squared 0.457, P-gp inhibitor Elacidar): > 50 µM

Structure (SMILES): Cc1ccc(-c2nnn[nH]2)cc1NC(=O)c1cc(Cl)cc(NC(=O)OCc2ccccc2)c1
- EC50 (Zika virus; Zika virus, VeroE6/TMPRSS2): > 16.7 µM
- EC90 (Zika virus; Zika virus, VeroE6/TMPRSS2, Maximum measured 182.406 %, Minimum measured 123.883 %): > 16.7 µM
- EC50 (dengue virus type 2; Dengue virus, VeroE6/TMPRSS2): 40.5 µM
- EC90 (dengue virus type 2; Dengue virus, VeroE6/TMPRSS2, Baseline response 0 %, Hill slope -16.355, Maximum measured 369.361 %, Maximum response 277.036 %, Minimum measured 8.558 %, P-gp concentration 2 uM, R squared 0.765, P-gp inhibitor Elacidar): 46.3 µM

Structure (SMILES): O=C(Nc1cc(Cl)cc(C(=O)Nc2ccc3c(c2)CNCCO3)c1)OCc1ccccc1
- EC50 (Zika virus; Zika virus, VeroE6/TMPRSS2): 5.26 µM
- EC90 (Zika virus; Zika virus, VeroE6/TMPRSS2, Baseline response 0 %, Hill slope -16.118, Maximum measured 155.613 %, Maximum response 100 %, Minimum measured 29.546 %, R squared 0.374): > 5.56 µM
- EC50 (dengue virus type 2; Dengue virus, VeroE6/TMPRSS2): 0.669 µM
- EC90 (dengue virus type 2; Dengue virus, VeroE6/TMPRSS2, Baseline response 0 %, Hill slope -1.036, Maximum measured 111.022 %, Maximum response 100 %, Minimum measured 5.282 %, P-gp concentration 2 uM, R squared 0.817, P-gp inhibitor Elacidar): > 5.56 µM

Source: ChEMBL document CHEMBL5661943, “ASAP - In vitro antiviral effect” (2024)
